Laboratory results reported in ChEMBL document CHEMBL1127841, “Adenosine deaminase inhibitors: synthesis and structure-activity relationships of 2-hydroxy-3-nonyl derivatives of azoles” (J Med Chem, 1994).
pKi: −log10 of the molar value.

Target: T1, Adenosine deaminase (Bos taurus, UniProt P56658)
T1 sequence (P56658 whole entry): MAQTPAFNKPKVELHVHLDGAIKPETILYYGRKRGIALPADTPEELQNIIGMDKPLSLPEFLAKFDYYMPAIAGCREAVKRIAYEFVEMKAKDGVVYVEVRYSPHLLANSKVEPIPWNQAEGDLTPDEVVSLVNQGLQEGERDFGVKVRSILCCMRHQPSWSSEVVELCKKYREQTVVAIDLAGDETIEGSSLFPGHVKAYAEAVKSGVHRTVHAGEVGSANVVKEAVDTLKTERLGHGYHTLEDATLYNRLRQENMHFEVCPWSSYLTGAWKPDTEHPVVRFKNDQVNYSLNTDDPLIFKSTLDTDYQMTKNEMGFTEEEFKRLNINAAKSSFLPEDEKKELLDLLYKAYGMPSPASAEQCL
Test: In vitro inhibition of adenosine deaminase isolated from calf intestine.

Row | pKi | SMILES
1 | 4.62 | CCCCCCC(C(C)O)n1ccnn1 (stereo in doubt; 13e)
2 | 5.02 | CCCCCCC(C(C)O)n1ncnn1 (stereo in doubt; 25e)
3 | 6.80 | CCCCCCC(C(C)O)n1cnc2c(N)nccc21 (stereo not given)
4 | < 3.00 | CCCCCCC(C(C)O)n1ncnn1 (stereo in doubt; 25t)
5 | < 3.00 | CCCCCCC(C(C)O)n1cccn1 (stereo not given)
6 | 4.59 | CCCCCCC(C(C)O)n1cnnc1 (stereo not given)
7 | 4.00 | CCCCCCC(C(C)O)n1ccnn1 (stereo in doubt; 13t)
8 | 8.00 | CCCCCCC(C(C)O)n1cnc2c(N)ccnc21 (stereo not given)
9 | < 3.40 | CCCCCCC(C(C)O)n1nccn1 (stereo not given)

Row | SMILES | pKi
10 | CCCCCCC(C(C)O)n1ccnc1 (stereo in doubt; 6e) | 6.15
11 | CCCCCCC(C(C)O)n1cncn1 (stereo in doubt; 18t) | 6.00
12 | CCCCCCC(C(C)O)n1cnnn1 (stereo in doubt; 23e) | 6.22
13 | CCCCCCC(C(C)O)n1cnnn1 (stereo in doubt; 23t) | 4.82
14 | CCCCCCC(C(C)O)n1cncn1 (stereo in doubt; 18e) | 6.52
15 | CCCCCCC(C(C)O)n1ccnc1 (stereo in doubt; 6t) | 5.74
